For 22 molecules, IC50 results are on record in patent US12448373B2, “Azetidinyl-acetamides as CXCR7 inhibitors” (CHEMOCENTRYX, INC., priority 2021, dated 2025).

Molecules are shown by their SMILES.

In this assay the target is T1, CXCR7 (Homo sapiens, UniProt P25106).
T1 construct: expressed in transfected cells; host or cells: CHO cells (CHO-CXCR7), transgenes maintained with Hygromycin B and G418
T1 sequence (P25106 whole entry): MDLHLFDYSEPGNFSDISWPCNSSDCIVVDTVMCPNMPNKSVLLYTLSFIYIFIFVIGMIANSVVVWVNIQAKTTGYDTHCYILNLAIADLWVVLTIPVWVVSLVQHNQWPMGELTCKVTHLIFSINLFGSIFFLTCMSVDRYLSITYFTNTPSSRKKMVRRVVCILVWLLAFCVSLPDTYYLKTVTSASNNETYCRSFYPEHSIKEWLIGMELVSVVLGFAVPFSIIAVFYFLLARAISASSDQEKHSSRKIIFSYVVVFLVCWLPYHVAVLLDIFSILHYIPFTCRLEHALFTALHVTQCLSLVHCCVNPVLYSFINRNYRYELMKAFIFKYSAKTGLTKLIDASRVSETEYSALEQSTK
As to the kind of experiment: CXCR7 β-arrestin recruitment assay in CHO-CXCR7 cells (ProLink/EA β-galactosidase complementation), induced by human SDF-1a. The class given is cell-based. As to conditions: assay buffer, SDF-1a at EC50 concentration. Here is the method:
CXCR7 is fused in frame with a small enzyme donor fragment ProLink and co-expressed in CHO cells stably expressing a fusion protein of β-arrestin and the larger, N-terminal deletion mutant of β-galactosidase (called enzyme acceptor or EA). Activation of the CXCR7 stimulates binding of β-arrestin to the ProLink-tagged CXCR7 and forces complementation of the two enzyme fragments, resulting in the formation of an active β-galactosidase enzyme. The β-galactosidase enzyme activity is measured with a substrate that generates fluorescence.
CHO-CXCR7 cells (0.22×10^6/mL) were cultured in growth medium (Ham's F-12 medium with 10% fetal bovine serum (FBS)), Hygromycin B (200 ug/mL) and G418 (250 ug/mL) were used to maintain the transgenes. The day before the assay, the cells were detached from culture dishes with 0.25% trypsin-EDTA (Corning, Catalog No. 25-053-CI), plated into 96 well plate (2.2×10^5 cells/mL, 100 μL/well) and incubated overnight at 37° C. with 5% CO2. On the day of the assay, cell culture medium was removed and 100 uL of assay buffer (PBS or FBS) was added to each well. 1 μL of compound that were serially diluted in DMSO was added to each well. 5 μL of human SDF-la (Pepro Tech, Catalog No. 300-28A, at EC50 concentration pre-determined on the same day) was then added and mixed to induce CXCR7-mediated β-arrestin recruitment. The plates were incubated for 1.5 hours at 37° C. The assay buffer was removed, 100 μL substrate solution was added and the reaction was carried out at 37° C. for 30 minutes. The substrate solution was prepared by mixing 100 mL Phosphate Buffer (1M, Sigma, Catalog No. P3619-1GA), 100 mL 10% Triton X 100 (Sigma, Catalog No. T8787.), 5 mL MgCl2 (1M, Sigma, Catalog No. M1028), 1.5 mL, β-mercaptoethanol (Gibco, Catalog No. 21985-023.). 3-carboxyumbelliferyl β-D-galactopyranoside (ThermoFisher Scientific, Catalo No. F2905) was added at 0.4 mM right before use. The reaction was then stopped by adding 50 μL of Stop Solution (2.1% w/v Na2CO3) to each well. Fluorescence intensity was measured with a FlexStation 3 microplate reader (Molecular Devices) with the following setting—excitation: 360 nm, emission: 465 nm, manual Gain: 55. IC50 values were calculated with GraphPad Prism using 3 parameter nonlinear regression.
For orientation: Recruitment of arrestin is a read-out of receptor activation apart from second messengers.
`CC(C)(NC(=O)CC1(NC(=O)c2nnc(-c3ccc(F)cc3F)s2)CN([C@H]2CC[C@@](C)(O)CC2)C1)c1cccc(Cl)c1` [Example 1.064]: the IC50 is < 5 nM.

As to `CC(C)(NC(=O)CC1(NC(=O)c2cn(-c3ccc(F)cc3F)nn2)CN([C@H]2CC[C@@](C)(O)CC2)C1)c1cccc(Cl)c1` [Example 1.066], the 50% inhibitory concentration (IC50) was in the range of 5 to 100 nM.

Take `CC(C)(NC(=O)CC1(NC(=O)c2cn(-c3ccc(F)cc3F)nn2)CN([C@H]2CC[C@](C)(O)CC2)C1)c1cccc(Cl)c1` [Example 1.067]: the IC50 fell in the range of 5 to 100 nM.

On to `CC(C)(NC(=O)CC1(NC(=O)c2cnc(-c3ccc(F)cc3F)s2)CN([C@H]2CC[C@@](C)(O)CC2)C1)c1cccc(Cl)c1` [Example 1.068], for which the IC50 lay within 5 to 100 nM.

As to `CC(C)(NC(=O)CC1(NC(=O)c2cnc(-c3ccc(F)cc3F)s2)CN([C@H]2CC[C@](C)(O)CC2)C1)c1cccc(Cl)c1` [Example 1.069], the concentration for half-maximal inhibition (IC50) was 5 to 100 nM.

As for `Cc1cc(C)nc(C(C)(C)NC(=O)CC2(NC(=O)c3nnc(-c4ccc(F)cc4F)s3)CN(C3CCCCC3)C2)n1` [Example 1.070], the IC50 was < 5 nM.

In the case of `Cc1cc(C)nc(C(C)(C)NC(=O)CC2(NC(=O)c3cn(-c4ccc(F)cc4F)nn3)CN(C3CCCCC3)C2)n1` [Example 1.071], the IC50 is 5 to 100 nM.

On to `CC(C)(NC(=O)CC1(NC(=O)c2nnc(-c3ccc(F)cc3F)s2)CN(C2CCCCC2)C1)c1ccccn1` [Example 1.072], for which the IC50 was < 5 nM.

In the case of `CC(C)(NC(=O)CC1(NC(=O)c2nnc(-c3ccc(F)cc3F)s2)CN(C2CCCCC2)C1)c1cccc(Cl)c1` [Example 1.073], the IC50 was < 5 nM.

For the molecule `Cc1cc(C(C)(C)NC(=O)CC2(NC(=O)c3cn(-c4ccc(F)cc4F)nn3)CN(C3CCCCC3)C2)ccn1` [Example 1.074], the 50% inhibitory concentration (IC50) was in the range of 5 to 100 nM.

In the case of `CC(C)(NC(=O)CC1(NC(=O)c2cn(-c3ccc(F)cc3F)nn2)CN(C2CCCCC2)C1)c1ccccn1` [Example 1.075], the 50% inhibitory concentration (IC50) was 5 to 100 nM.

`CC(C)(NC(=O)CC1(NC(=O)c2cn(-c3ccc(F)cc3F)nn2)CN(C2CCCCC2)C1)c1cccc(Cl)c1` [Example 1.076]: the half-inhibitory concentration (IC50) fell in the range of 5 to 100 nM.

For the molecule `CC(C)CN1CC(CC(=O)NC(C)(C)c2ccnc3[nH]ccc23)(NC(=O)c2cc(-c3ccc(F)cc3F)on2)C1` [Example 1.077], the half-inhibitory concentration (IC50) was < 5 nM.

`CC(C)(NC(=O)CC1(NC(=O)c2noc(-c3ccc(F)cc3F)n2)CN([C@H]2CC[C@](C)(O)CC2)C1)c1ccccc1` [Example 1.078] yielded an IC50 of 100 to 1000 nM.

`Cc1cc(C(C)(C)NC(=O)CC2(NC(=O)c3cc(-c4ccc(F)cc4F)on3)CN([C@H]3CC[C@](C)(O)CC3)C2)nc(C)n1` [Example 1.079]: the 50% inhibitory concentration (IC50) is 5 to 100 nM.

In turn, `CC(C)(NC(=O)CC1(NC(=O)c2cn(-c3ccc(F)cc3F)nn2)CN([C@H]2CC[C@](C)(O)CC2)C1)c1ccccc1` [Example 1.081] registered an IC50 of 5 to 100 nM.

For `CC(C)(NC(=O)CC1(NC(=O)c2cc(-c3ccc(F)cc3F)on2)CN(C2CCCCC2)C1)c1ccnc2[nH]ccc12` [Example 1.082], the IC50 was < 5 nM.

`Cc1cc(Cl)cc(C(C)(C)NC(=O)CC2(NC(=O)c3cc(-c4ccc(F)cc4F)on3)CN([C@H]3CC[C@@](C)(O)CC3)C2)c1` [Example 1.083]: the half-inhibitory concentration (IC50) is < 5 nM.

Molecule `CC(C)(NC(=O)CC1(NC(=O)c2cn(-c3ccc(F)cc3)nn2)CN([C@H]2CC[C@](C)(O)CC2)C1)c1ccccc1` [Example 1.084] returned an IC50 of 100 to 1000 nM.

With `CC(C)(NC(=O)CC1(NC(=O)c2cc(-c3ccc(F)cc3F)on2)CN([C@H]2CC[C@@](C)(O)CC2)C1)c1cc(Cl)ccc1Cl` [Example 1.085], the IC50 was < 5 nM.

For `CC(C)(NC(=O)CC1(NC(=O)c2cc(-c3ccc(F)cc3F)on2)CN([C@H]2CC[C@@](C)(O)CC2)C1)c1cc(Cl)cc(Cl)c1` [Example 1.086], the IC50 is < 5 nM.

Consider `CC(C)(NC(=O)CC1(NC(=O)c2cc(-c3ccc(F)cc3F)on2)CN([C@H]2CC[C@](C)(O)CC2)C1)c1cccc2[nH]ncc12` [Example 1.087], for which the concentration for half-maximal inhibition (IC50) lay in the range of 1000 to 20000 nM.

By IC50 is commonly meant the concentration that gives 50% inhibition.
